The text below walks through data of patent publication US20080119534A1, “Benzimidazole Derivatives as Therapeutic Agents” (Trans Tech Pharma, Inc, priority 2001, published 2008).

For one assay, the target named is T1, sRAGE (ligand S-100b) (Homo sapiens, UniProt Q15109).
T1 construct: extracellular domain can be isolated by proteolysis of RAGE to generate soluble RAGE (sRAGE) comprised of the V and C domains
The experiment in a line: ELISA assay: inhibition of sRAGE binding to plate-bound S100b. The following applies: sRAGE binding to immobilised S100b; concentration at which 50% signal has been inhibited. How it is done: (§1) S100b, β-amyloid and CML (500 ng/100 μL/well) in 100 mM sodium bicarbonate/sodium carbonate buffer (pH 9.8) is loaded onto the wells of a NUNC Maxisorp flat bottom 96-well microtitre plate. The plate is incubated at 4° C. overnight. The wells are aspirated and treated with 50 mM imidazole buffer saline (pH 7.2) (with 1 mM CaCl2/MgCl2) containing 1% bovine serum albumin (BSA) (300 μL/well) for two h at 37° C.
(§2) Test compounds are dissolved in nanopure water (concentration: 10-100 μM). DMSO may be used as co-solvent. 25 μL of test compound solution in 2% DMSO is added, along with 75 μL sRAGE (4.0×10^−4 mg/mL FAC) to each well and samples are incubated for 1 h at 37° C. The wells are washed 3 times with 155 mM NaCl pH 7.2 buffer saline and are soaked 10 seconds between each wash.
(§3) Non-radioactive binding is performed by adding:
(§4) 10 μL Biotinylated goat F(ab′)2 Anti-mouse IgG. (8.0×10^−4 mg/mL, FAC)
(§5) 10 μL Alkaline phosphatase Streptavidin (3×10^−3 mg/mL FAC)
(§6) 10 μL Polyclonal antibody for sRAGE (FAC 6.0×10^−3 mg/mL)
(§7) to 5 mL 50 mM imidazole buffer saline (pH 7.2) containing 0.2% bovine serum albumin and 1 mM CaCl2. The mixture is incubated for 30 minutes at 37° C. 100 μL complex is added to each well and incubation is allowed to proceed at rt for 1 h. Wells are washed 3 times with wash buffer and soaked 10 s between each wash. 100 μL 1 mg/mL (pNPP) in 1 M diethanolamine (pH adjusted to 9.8 with HCl) is added. Color is allowed to develop in the dark for 1 to 2 h at rt. The reaction is quenched with 10 μL of stop solution (0.5 N NaOH in 50% ethanol) and the absorbance is measured spectrophotometrically with a microplate reader at 405 nm.
(In general: An ELISA detects its analyte on a solid surface through an enzyme-linked reagent.)

The target of assay [1] is T2, sRAGE (ligand Carboxymethyl Lysine (CML)) (Homo sapiens, UniProt Q15109).
T2 construct: extracellular domain can be isolated by proteolysis of RAGE to generate soluble RAGE (sRAGE) comprised of the V and C domains
Description: ELISA assay: inhibition of sRAGE binding to plate-bound CML. The settings on record: sRAGE binding to immobilised CML; concentration at which 50% signal has been inhibited. As to the method: as §1, §2, §3, §4, §5, §6, §7

In another assay the target is T3, sRAGE (ligand Amyloid-β) (Homo sapiens, UniProt Q15109).
T3 construct: extracellular domain can be isolated by proteolysis of RAGE to generate soluble RAGE (sRAGE) comprised of the V and C domains
Description: ELISA assay: inhibition of sRAGE binding to plate-bound β-amyloid. The following applies: sRAGE binding to immobilised β-amyloid; concentration at which 50% signal has been inhibited. As to the method: as §1, §2, §3, §4, §5, §6, §7

Counter-ions that a name gives are not always drawn.

T2 sequence (Q15109 23-342 limits assumed): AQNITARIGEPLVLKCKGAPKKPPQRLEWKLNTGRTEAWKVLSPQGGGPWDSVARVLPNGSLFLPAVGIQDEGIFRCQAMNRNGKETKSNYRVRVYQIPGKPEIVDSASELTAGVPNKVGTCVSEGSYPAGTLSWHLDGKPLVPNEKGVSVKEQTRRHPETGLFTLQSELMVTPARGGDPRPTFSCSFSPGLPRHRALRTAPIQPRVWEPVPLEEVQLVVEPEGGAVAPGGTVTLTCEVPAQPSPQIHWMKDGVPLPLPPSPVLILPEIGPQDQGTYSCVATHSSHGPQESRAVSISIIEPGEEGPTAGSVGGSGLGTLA
T3 sequence (Q15109 23-342 limits assumed): as above
T1 sequence (Q15109 23-342 limits assumed): as above

As a reminder, the IC50 is the concentration at which inhibition is half-maximal. As to `CCN(CC)CCCOc1ccc2nc([C@@H](Cc3ccc(OCc4ccccc4)cc3)NC(=O)OC(C)(C)C)n(CC)c2c1` [Example 11, 2-[(1R)-2-(4-Benzyloxyphenyl)-1-(tert-butoxycarbonylamino)-1-ethyl]-3-ethyl-5-(3-diethylamino-1-propoxy)benzimidazole], the IC50 (at sRAGE (ligand S-100b); in assay [1]; at sRAGE (ligand Amyloid-β)) was 1 to 5 µM in each case.

In the case of `CCN(CC)CCCOc1ccc2[nH]c([C@H](N)Cc3ccc(OCc4ccccc4)cc3)nc2c1` [Example 6, 2-[(1R)-2-(4-Benzyloxyphenyl)-1-amino-1-ethyl]-6-(3-diethylamino-1-propoxy)benzimidazole], the IC50 at sRAGE (ligand S-100b) lay within 5 to 10 µM; in assay [1], 1 to 5 µM; at sRAGE (ligand Amyloid-β), 5 to 10 µM.

With `CCCn1c([C@H](N)Cc2ccc(OCc3ccccc3)cc2)nc2ccc(OCCCN(CC)CC)cc21` [Example 16, 2-[(1R)-2-(4-Benzyloxyphenyl)-1-amino-1-ethyl]-3-propyl-5-(3-diethylamino-1-propoxy)benzimidazole], the values for the 50% inhibitory concentration (IC50) (on sRAGE (ligand S-100b); in assay [1]; at sRAGE (ligand Amyloid-β)) were 5 to 10 µM, 10 to 20 µM and 10 to 20 µM, respectively.

With `CCCCn1c([C@@H](Cc2ccc(OCC)cc2)NC(=O)OC(C)(C)C)nc2ccc(OCCCN(CC)CC)cc21` [Example 8, 2-[(1R)-2-(4-Ethoxyphenyl)-1-(tert-butoxycarbonylamino)-1-ethyl]-3-butyl-5-(3-diethylamino-1-propoxy)benzimidazole], the results for the IC50 (on sRAGE (ligand S-100b); in assay [1]; at sRAGE (ligand Amyloid-β)) were 5 to 10 µM, 1 to 5 µM and 5 to 10 µM, respectively.

On to `CCCCn1c([C@@H](Cc2ccc(OCc3ccccc3)cc2)NC(=O)OC(C)(C)C)nc2cc(OCCCN(CC)CC)ccc21` [Example 3, 2-[(1R)-2-(4-Benzyloxyphenyl)-1-tert-butoxycarbonylamino-1-ethyl]-3-butyl-6-(3-diethylamino-1-propoxy)benzimidazole], for which the IC50 (at sRAGE (ligand S-100b); in assay [1]; at sRAGE (ligand Amyloid-β)) was 1 to 5 µM throughout.

As for `CCCCn1c(C(Cc2cccc(OCc3ccccc3)c2)NC(=O)OC(C)(C)C)nc2ccc(OCCCN(CC)CC)cc21` (centres unmarked) [Example 7, 2-[2-(3-Benzyloxyphenyl)-1-(tert-butoxycarbonylamino)-1-ethyl]-3-butyl-5-(3-diethylamino-1-propoxy)benzimidazole], the half-maximal inhibitory concentration (IC50) (on sRAGE (ligand S-100b); in assay [1]; on sRAGE (ligand Amyloid-β)) was 1 to 5 µM each time.

`CCN(CC)CCCOc1ccc2nc([C@H](N)Cc3ccc(OCc4ccccc4)cc3)n(Cc3ccccc3)c2c1` [Example 14, 2-[(1R)-2-(4-Benzyloxyphenyl)-1-amino-1-ethyl]-3-benzyl-5-(3-diethylamino-1-propoxy)benzimidazole]: the IC50 on sRAGE (ligand S-100b) was in the range of 5 to 10 µM; in assay [1], 5 to 10 µM; on sRAGE (ligand Amyloid-β), 10 to 20 µM.

With `CCN(CC)CCCOc1ccc2[nH]c([C@@H](Cc3ccc(OCc4ccccc4)cc3)NC(=O)OC(C)(C)C)nc2c1` [Example 5, 2-[(1R)-2-(4-Benzyloxyphenyl)-1-tert-butoxycarbonylamino-1-ethyl]-6-(3-diethylamino-1-propoxy)benzimidazole], the concentration for half-maximal inhibition (IC50) lay in the range of 10 to 20 µM at sRAGE (ligand S-100b) and 5 to 10 µM in assay [1].

Consider `CCCCn1c([C@H](N)Cc2ccc(OCc3ccccc3)cc2)nc2ccc(OCCCN(CC)CC)cc21` [Example 2, 2-[(1R)-2-(4-Benzyloxyphenyl)-1-amino-1-ethyl]-3-butyl-5-(3-diethylamino-1-propoxy)benzimidazoleTrihydrochloride], for which the half-inhibitory concentration (IC50) (at sRAGE (ligand S-100b); in assay [1]; at sRAGE (ligand Amyloid-β)) was 1 to 5 µM throughout.

Take `CCN(CC)CCCOc1ccc2nc([C@@H](Cc3ccc(OCc4ccccc4)cc3)NC(=O)OC(C)(C)C)n(CCCN(CC)CC)c2c1` [Example 10, 2-[(1R)-2-(4-Benzyloxyphenyl)-1-(tert-butoxycarbonylamino)-1-ethyl]-3-(3-diethylamino-1-propyl)-5-(3-diethylamino-1-propoxy)benzimidazole]: the IC50 on sRAGE (ligand S-100b) lay within 1 to 5 µM; in assay [1], 1 to 5 µM; on sRAGE (ligand Amyloid-β) it was 5 to 10 µM.

For `CCCCn1c([C@@H](Cc2ccc(OCc3ccccc3)cc2)NC(=O)OC(C)(C)C)nc2ccc(OCCCN(CC)CC)cc21` [Example 1, 2-[(1R)-2-(4-Benzyloxyphenyl)-1-tert-butoxycarbonylamino-1-ethyl]-3-butyl-5-(3-diethylamino-1-propoxy)benzimidazole], the IC50 at sRAGE (ligand S-100b) lay within 1 to 5 µM; in assay [1], 0.5 to 1 µM; at sRAGE (ligand Amyloid-β), 1 to 5 µM.

In the case of `CCN(CC)CCCOc1ccc2nc([C@@H](Cc3ccc(OCc4ccccc4)cc3)NC(=O)OC(C)(C)C)n(Cc3ccccc3)c2c1` [Example 13, 2-[(1R)-2-(4-Benzyloxyphenyl)-1-(tert-butoxycarbonylamino)-1-ethyl]-3-benzyl-5-(3-diethylamino-1-propoxy)benzimidazole], the IC50 (on sRAGE (ligand S-100b); in assay [1]; at sRAGE (ligand Amyloid-β)) was 5 to 10 µM each time.

Take `CCCCn1c([C@H](N)Cc2ccc(OCc3ccccc3)cc2)nc2cc(OCCCN(CC)CC)ccc21` [Example 4, 2-[(1R)-2-(4-Benzyloxyphenyl)-1-amino-1-ethyl]-3-butyl-6-(3-diethylamino-1-propoxy)benzimidazole]: the IC50 (on sRAGE (ligand S-100b); in assay [1]; on sRAGE (ligand Amyloid-β)) was 1 to 5 µM each time.

As for `CCCn1c([C@@H](Cc2ccc(OCc3ccccc3)cc2)NC(=O)OC(C)(C)C)nc2ccc(OCCCN(CC)CC)cc21` [Example 15, 2-[(1R)-2-(4-Benzyloxyphenyl)-1-(tert-butoxycarbonylamino)-1-ethyl]-3-propyl-5-(3-diethylamino-1-propoxy)benzimidazole], the IC50 (at sRAGE (ligand S-100b); in assay [1]; on sRAGE (ligand Amyloid-β)) was 5 to 10 µM each time.

Regarding `CCN(CC)CCCOc1ccc2nc([C@H](N)Cc3ccc(OCc4ccccc4)cc3)n(CCCN(CC)CC)c2c1` [Example 12, 2-[(1R)-2-(4-Benzyloxyphenyl)-1-amino-1-ethyl]-3-(3-diethylamino-1-propyl)-5-(3-diethylamino-1-propoxy)benzimidazole], the IC50 (at sRAGE (ligand S-100b); in assay [1]; at sRAGE (ligand Amyloid-β)) was 1 to 5 µM each time.

For the compound `CCCCn1c([C@@H](Cc2ccc(OCCc3ccc(Cl)cc3)cc2)NC(=O)OC(C)(C)C)nc2ccc(OCCCN(CC)CC)cc21` [Example 9], the IC50 (on sRAGE (ligand S-100b); in assay [1]; at sRAGE (ligand Amyloid-β)) was 0.5 to 1 µM in each case.
